These are literature values, as cited in EP1694242B1, “PROCESS FOR MAKING PHARMACEUTICAL 7-(2-TRIMETHYLSILYLETHYL) CAMPTOTHECIN FORMULATIONS” (BIONUMERIK PHARMACEUTICALS, INC., priority 2003, dated 2005).

The conditions of the data set: fraction of the potency of the lactone form; background statement.

For the compound `CC[C@@](O)(C(=O)O)c1cc2n(c(=O)c1CO)Cc1cc3ccccc3nc1-2` [carboxylate form of CPT], the “antitumor potency of the carboxylate form relative to the lactone form of CPT” value was “one-tenth”.
